# Data: US7396837B2, “Antitumoral analogs of lamellarins” (Pharma Mar, S.A.U., priority 2002, dated 2008)
# Experiments:
# Type in all cases: cell-based
# [1] = test system: H-MEC-1; experiment: SRB colorimetric cell growth inhibition assay, H-MEC-1; settings: Homo sapiens, HMEC-1, H-MEC-1; for GI50: GI=growth inhibition; for IC (TGI): TGI=total growth inhibition (cytostatic effect), read-out: TGI H-MEC-1
# Outline: (§1)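 Growth and viability quantified by sulforhodamine B staining in 96-well microplates. Triplicate wells give mean ± SD; derived endpoints are GI, TGI (cytostatic) and LC (cytotoxic).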
# [2] = as above; settings: human, H-MEC-1 cells, H-MEC-1; LC=cell killing (cytotoxic effect); read-out: LC50 H-MEC-1
# Outline: as §1
# [3] = test system: DU-145; experiment: SRB colorimetric cell growth inhibition assay, DU-145; settings: Homo sapiens, DU-145, DU-145; for GI50: GI=growth inhibition, read-out: GI50 DU-145; for CC50: LC=cell killing (cytotoxic effect), read-out: LC50 DU-145; for IC (TGI): TGI=total growth inhibition (cytostatic effect), read-out: TGI DU-145
# Outline: (§2)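 Tested samples remained on human cancer cell cultures throughout the incubation; viable biomass was then stained with SRB and read colorimetrically.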
# [4] = test system: LNCaP; experiment: SRB colorimetric cell growth inhibition assay, LNCaP; settings: Homo sapiens, LNCaP, LN-caP; for GI50: GI=growth inhibition, read-out: GI50 LN-caP; for CC50: LC=cell killing (cytotoxic effect), read-out: LC50 LN-caP; for IC (TGI): TGI=total growth inhibition (cytostatic effect), read-out: TGI LN-caP
# Outline: as §2
# [5] = test system: HT-29; experiment: SRB colorimetric cell growth inhibition assay, HT-29; settings: Homo sapiens, HT-29, HT-29; for GI50: GI=growth inhibition, read-out: GI50 HT-29; for CC50: cell killing (cytotoxic effect), read-out: LC50 HT-29; for IC (TGI): total growth inhibition (cytostatic effect), read-out: TGI HT-29
# Outline: as §2
# [6] = test system: LoVo-Dox; experiment: SRB colorimetric cell growth inhibition assay, LoVo-Dox (MDR); settings: Homo sapiens, LOVO-DOX; for GI50: GI=growth inhibition, read-out: GI50 LOVO-DOX; for CC50: cell killing (cytotoxic effect), read-out: LC50 LOVO-DOX; for IC (TGI): total growth inhibition (cytostatic effect), read-out: TGI LOVO-DOX
# Outline: as §2
# [7] = test system: LoVo; experiment: SRB colorimetric cell growth inhibition assay, LoVo; settings: Homo sapiens, LoVo; for GI50: GI=growth inhibition, read-out: GI50 LOVO; for CC50: cell killing (cytotoxic effect), read-out: LC50 LOVO; for IC (TGI): total growth inhibition (cytostatic effect), read-out: TGI LOVO
# Outline: as §2
# [8] = test system: IGROV-ET; experiment: SRB colorimetric cell growth inhibition assay, IGROV-ET (ET-743 resistant); settings: Homo sapiens, IGROV-ET; for GI50: GI=growth inhibition, read-out: GI50 IGROV-ET; for CC50: LC=cell killing (cytotoxic effect), read-out: LC50 IGROV-ET; for IC (TGI): TGI=total growth inhibition (cytostatic effect), read-out: TGI IGROV-ET
# Outline: as §2
# [9] = test system: PANC-1; experiment: SRB colorimetric cell growth inhibition assay, PANC-1; settings: Homo sapiens, PANC-1, PANC-1; for GI50: GI=growth inhibition, read-out: GI50 PANC-1; for CC50: cell killing (cytotoxic effect), read-out: LC50 PANC-1; for IC (TGI): total growth inhibition (cytostatic effect), read-out: TGI PANC-1
# Outline: as §2
# [10] = test system: A-549; experiment: SRB colorimetric cell growth inhibition assay, A-549; settings: Homo sapiens, A549, A-549; for GI50: GI=growth inhibition, read-out: GI50 A-549; for CC50: cell killing (cytotoxic effect), read-out: LC50 A-549; for IC (TGI): total growth inhibition (cytostatic effect), read-out: TGI A-549
# Outline: as §2
# [11] = test system: SKOV-3; experiment: SRB colorimetric cell growth inhibition assay, SKOV-3; settings: Homo sapiens; for GI50: SK-OV-3, SKOV-3, GI=growth inhibition, read-out: GI50 SKOV-3; for CC50 / IC (TGI): SK-OV-3, SKOV-3; for CC50: LC=cell killing (cytotoxic effect), read-out: LC50 SKOV-3; for IC (TGI): TGI=total growth inhibition (cytostatic effect), read-out: TGI SKOV-3
# Outline: as §1
# [12] = test system: SK-BR-3; experiment: SRB colorimetric cell growth inhibition assay, SK-BR-3; settings: Homo sapiens, SK-BR-3, SK-BR-3; for GI50: GI=growth inhibition, read-out: GI50 SK-BR-3; for CC50: LC=cell killing (cytotoxic effect), read-out: LC50 SK-BR-3; for IC (TGI): TGI=total growth inhibition (cytostatic effect), read-out: TGI SK-BR-3
# Outline: as §2
# [13] = test system: SK-MEL-28; experiment: SRB colorimetric cell growth inhibition assay, SK-MEL-28; settings: Homo sapiens, SK-MEL-28, MEL-28; for GI50: GI=growth inhibition, read-out: GI50 MEL-28; for CC50: LC=cell killing (cytotoxic effect), read-out: LC50 MEL-28; for IC (TGI): TGI=total growth inhibition (cytostatic effect), read-out: TGI MEL-28
# Outline: as §2
# [14] = test system: IGROV; experiment: SRB colorimetric cell growth inhibition assay, IGROV; settings: Homo sapiens, IGROV; for GI50: GI=growth inhibition, read-out: GI50 IGROV; for CC50: LC=cell killing (cytotoxic effect), read-out: LC50 IGROV; for IC (TGI): TGI=total growth inhibition (cytostatic effect), read-out: TGI IGROV
# Outline: as §2
# [15] = test system: K-562; experiment: SRB colorimetric cell growth inhibition assay, K-562; settings: Homo sapiens, K562, K-562; for GI50: GI=growth inhibition, read-out: GI50 K-562; for CC50: cell killing (cytotoxic effect), read-out: LC50 K-562; for IC (TGI): total growth inhibition (cytostatic effect), read-out: TGI K-562
# Outline: as §2
smiles,measurement,setting,value
COc1cc(-c2c3c4cc(OC)c(OC(C)C)cc4oc(=O)c3n3ccc4c(OC(C)C)c(OC)c(OC)c(COS(C)(=O)=O)c4c23)ccc1OC(C)C [Compound 101],GI50,[1],4.66 µM
same,IC (TGI),[1],6.99 µM
same,CC50,[2],10.5 µM
same,GI50,[3],13.1 µM
same,CC50,[3],13.1 µM
same,IC (TGI),[3],13.1 µM
same,GI50,[4],8.25 µM
same,CC50,[4],13.1 µM
same,IC (TGI),[4],13.1 µM
same,GI50,[5],13.1 µM
same,CC50,[5],13.1 µM
same,IC (TGI),[5],13.1 µM
same,GI50,[6],13.1 µM
same,CC50,[6],13.1 µM
same,IC (TGI),[6],13.1 µM
same,GI50,[7],13.1 µM
same,CC50,[7],13.1 µM
same,IC (TGI),[7],13.1 µM
same,GI50,[8],13.1 µM
same,CC50,[8],13.1 µM
same,IC (TGI),[8],13.1 µM
same,GI50,[9],13.1 µM
same,CC50,[9],13.1 µM
same,IC (TGI),[9],13.1 µM
same,GI50,[10],13.1 µM
same,CC50,[10],13.1 µM
same,IC (TGI),[10],13.1 µM
same,GI50,[11],0.791 µM
same,CC50,[11],5.71 µM
same,IC (TGI),[11],2.34 µM
same,GI50,[12],13.1 µM
same,CC50,[12],13.1 µM
same,IC (TGI),[12],13.1 µM
same,GI50,[13],13.1 µM
same,CC50,[13],13.1 µM
same,IC (TGI),[13],13.1 µM
same,GI50,[14],11.9 µM
same,CC50,[14],13.1 µM
same,IC (TGI),[14],13.1 µM
same,GI50,[15],2.19 µM
same,CC50,[15],5.73 µM
same,IC (TGI),[15],3.53 µM
COc1cc2ccn3c(c(-c4ccc(OS(=O)(=O)C(F)(F)F)c(OC)c4)c4c5cc(OC)c(OS(=O)(=O)C(F)(F)F)cc5oc(=O)c43)c2cc1OC [Compound 126],GI50,[1],0.746 µM
same,IC (TGI),[1],2.25 µM
same,CC50,[2],6.46 µM
same,GI50,[3],2.53 µM
same,CC50,[3],12.9 µM
same,IC (TGI),[3],6.49 µM
same,GI50,[4],1.25 µM
same,CC50,[4],6.04 µM
same,IC (TGI),[4],2.76 µM
same,GI50,[5],3 µM
same,CC50,[5],12.9 µM
same,IC (TGI),[5],9.22 µM
same,GI50,[6],12.9 µM
same,CC50,[6],12.9 µM
same,IC (TGI),[6],12.9 µM
same,GI50,[7],2.56 µM
same,CC50,[7],12.6 µM
same,IC (TGI),[7],5.68 µM
same,GI50,[8],3.88 µM
same,CC50,[8],12.9 µM
same,IC (TGI),[8],7.87 µM
same,GI50,[9],2.19 µM
same,CC50,[9],12.9 µM
same,IC (TGI),[9],6.57 µM
same,GI50,[10],2.98 µM
same,CC50,[10],2.25 µM
same,IC (TGI),[10],5.74 µM
same,GI50,[11],3.48 µM
same,CC50,[11],12.9 µM
same,IC (TGI),[11],6.98 µM
same,GI50,[12],2.11 µM
same,CC50,[12],1.29 µM
same,IC (TGI),[12],5.36 µM
same,GI50,[13],2.93 µM
same,CC50,[13],9.48 µM
same,IC (TGI),[13],5.27 µM
same,GI50,[14],2.26 µM
same,CC50,[14],12.6 µM
same,IC (TGI),[14],5.32 µM
same,GI50,[15],2.15 µM
same,CC50,[15],8.69 µM
same,IC (TGI),[15],4.32 µM
